In PubChem BioAssay AID1259407 (Chemical Carcinogenesis Research Information System (CCRIS), 2018) one finds mutagenic call data, which are given here for seven compounds.

The source made the active and inactive calls. How the calls were made is not given here.

The data set deals with CCRIS mutagenicity, Ames/micronucleus/aberration tests. The data set is described as follows: CCRIS mutagenicity studies.
Setting [1] is: Test System: AMES SALMONELLA TYPHIMURIUM, Strain/Indicator: TA98, Metabolic Activation: NONE, Method: STANDARD PLATE.
[2] abbreviates: Test System: AMES SALMONELLA TYPHIMURIUM, Strain/Indicator: TA100, Metabolic Activation: NONE, Method: STANDARD PLATE.
Where [3] appears, read: Test System: AMES SALMONELLA TYPHIMURIUM, Strain/Indicator: TA1535, Metabolic Activation: NONE, Method: STANDARD PLATE.
[4] abbreviates: Test System: AMES SALMONELLA TYPHIMURIUM, Strain/Indicator: TA1537, Metabolic Activation: NONE, Method: STANDARD PLATE.
Where [5] appears, read: Test System: AMES SALMONELLA TYPHIMURIUM, Strain/Indicator: TA1538, Metabolic Activation: NONE, Method: STANDARD PLATE.

As for `Nc1ccn([C@@H]2C=C(CO)[C@@H](O)[C@H]2O)c(=O)n1`, the mutagenic call runs as follows: (Test System: AMES SALMONELLA TYPHIMURIUM, Strain/Indicator: TA98, Metabolic Activation: HAMSTER, LIVER, S-9, AROCLOR 1254 (10%), Method: STANDARD PLATE) “inactive; negative”; under setting [1], “inactive; negative”; (Test System: AMES SALMONELLA TYPHIMURIUM, Strain/Indicator: TA98, Metabolic Activation: RAT, LIVER, S-9, AROCLOR 1254 (10%), Method: STANDARD PLATE) “inactive; negative”; (Test System: AMES SALMONELLA TYPHIMURIUM, Strain/Indicator: TA100, Metabolic Activation: HAMSTER, LIVER, S-9, AROCLOR 1254 (10%), Method: STANDARD PLATE) “inactive; negative”; under setting [2], “inactive; negative”; (Test System: AMES SALMONELLA TYPHIMURIUM, Strain/Indicator: TA100, Metabolic Activation: RAT, LIVER, S-9, AROCLOR 1254 (10%), Method: STANDARD PLATE) “inactive; negative”. The mutagenic call is, setting by setting: (Test System: AMES SALMONELLA TYPHIMURIUM, Strain/Indicator: TA1535, Metabolic Activation: HAMSTER, LIVER, S-9, AROCLOR 1254 (10%), Method: STANDARD PLATE) “inactive; negative”; under setting [3], “inactive; negative”; (Test System: AMES SALMONELLA TYPHIMURIUM, Strain/Indicator: TA1535, Metabolic Activation: RAT, LIVER, S-9, AROCLOR 1254 (10%), Method: STANDARD PLATE) “inactive; negative”; (Test System: AMES SALMONELLA TYPHIMURIUM, Strain/Indicator: TA1537, Metabolic Activation: HAMSTER, LIVER, S-9, AROCLOR 1254 (10%), Method: STANDARD PLATE) “inactive; negative”; under setting [4], “inactive; negative”; (Test System: AMES SALMONELLA TYPHIMURIUM, Strain/Indicator: TA1537, Metabolic Activation: RAT, LIVER, S-9, AROCLOR 1254 (10%), Method: STANDARD PLATE) “inactive; negative”. Besides, the mutagenic call runs as follows: (Test System: AMES SALMONELLA TYPHIMURIUM, Strain/Indicator: TA1538, Metabolic Activation: HAMSTER, LIVER, S-9, AROCLOR 1254 (10%), Method: STANDARD PLATE) “inactive; negative”; under setting [5], “inactive; negative”; (Test System: AMES SALMONELLA TYPHIMURIUM, Strain/Indicator: TA1538, Metabolic Activation: RAT, LIVER, S-9, AROCLOR 1254 (10%), Method: STANDARD PLATE) “inactive; negative”; (Test System: MOUSE LYMPHOMA, Strain/Indicator: L5178Y (TK+/TK-), Metabolic Activation: RAT, LIVER, S-9, AROCLOR 1254, Method: SUSPENSION/PLATE) “active; positive. reevaluation of results: positive”; (Test System: Mouse lymphoma, Strain/Indicator: L5178Y (tk+/tk-), Metabolic Activation: None, Method: Suspension/plate) “active; positive”.

For the compound `FC(F)(Br)C(F)(F)I`, the mutagenic call by setting is: (Test System: Ames Salmonella typhimurium, Strain/Indicator: TA98, Metabolic Activation: None, Method: Preincubation) “inactive; negative”; (Test System: Ames Salmonella typhimurium, Strain/Indicator: TA98, Metabolic Activation: Rat, Liver, S9, Sodium phenobarbital and 5,6-benzoflavone (10%), Method: Preincubation) “inactive; negative”; (Test System: Ames Salmonella typhimurium, Strain/Indicator: TA100, Metabolic Activation: None, Method: Preincubation) “inactive; negative”; (Test System: Ames Salmonella typhimurium, Strain/Indicator: TA100, Metabolic Activation: Rat, Liver, S9, Sodium phenobarbital and 5,6-benzoflavone (10%), Method: Preincubation) “inactive; negative”; (Test System: Ames Salmonella typhimurium, Strain/Indicator: TA1535, Metabolic Activation: None, Method: Preincubation) “active; positive”; (Test System: Ames Salmonella typhimurium, Strain/Indicator: TA1535, Metabolic Activation: Rat, Liver, S9, Sodium phenobarbital and 5,6-benzoflavone (10%), Method: Preincubation) “active; positive”. Further, the mutagenic call is, setting by setting: (Test System: Ames Salmonella typhimurium, Strain/Indicator: TA1537, Metabolic Activation: None, Method: Preincubation) “inactive; negative”; (Test System: Ames Salmonella typhimurium, Strain/Indicator: TA1537, Metabolic Activation: Rat, Liver, S9, Sodium phenobarbital and 5,6-benzoflavone (10%), Method: Preincubation) “inactive; negative”; (Test System: E. coli, Strain/Indicator: WP2uvrA/pKM101, Metabolic Activation: None, Method: Preincubation) “active; positive”; (Test System: E. coli, Strain/Indicator: WP2uvrA/pKM101, Metabolic Activation: Rat, Liver, S9, Sodium phenobarbital and 5,6-benzoflavone (10%), Method: Preincubation) “active; positive”.

`CCN[C@@H](C)C[C@H](C)NCC.[Cl-].[Cl-].[Pt+2]`: the mutagenic call runs as follows: (Test System: AMES SALMONELLA TYPHIMURIUM, Strain/Indicator: TA97A, Metabolic Activation: NONE, Method: STANDARD PLATE) “active; positive”; under setting [2], “active; positive”.

For the compound `C[Si]1(C)O[Si](C)(C)O[Si](C)(C)O[Si](C)(C)O[Si](C)(C)O1`, the mutagenic call was “inactive; negative” under setting [1]; “inactive; negative” (Test System: AMES SALMONELLA TYPHIMURIUM, Strain/Indicator: TA98, Metabolic Activation: RAT LIVER S-9, AROCLOR 1254, Method: STANDARD PLATE); “inactive; negative” under setting [2]; “inactive; negative” (Test System: AMES SALMONELLA TYPHIMURIUM, Strain/Indicator: TA100, Metabolic Activation: RAT LIVER S-9, AROCLOR 1254, Method: STANDARD PLATE); “inactive; negative” under setting [3]; “inactive; negative” (Test System: AMES SALMONELLA TYPHIMURIUM, Strain/Indicator: TA1535, Metabolic Activation: RAT LIVER S-9, AROCLOR 1254, Method: STANDARD PLATE). The mutagenic call runs as follows: under setting [4], “inactive; negative”; (Test System: AMES SALMONELLA TYPHIMURIUM, Strain/Indicator: TA1537, Metabolic Activation: RAT LIVER S-9, AROCLOR 1254, Method: STANDARD PLATE) “inactive; negative”; under setting [5], “inactive; negative”; (Test System: AMES SALMONELLA TYPHIMURIUM, Strain/Indicator: TA1538, Metabolic Activation: RAT LIVER S-9, AROCLOR 1254, Method: STANDARD PLATE) “inactive; negative”; (Test System: E. COLI, Strain/Indicator: P3078 POLA, Metabolic Activation: NONE, Method: SPOT TEST) “inactive; negative”; (Test System: E. COLI, Strain/Indicator: P3078 POLA, Metabolic Activation: RAT LIVER S-9, AROCLOR 1254, Method: SPOT TEST) “inactive; negative”. Also, the mutagenic call (Test System: E. COLI, Strain/Indicator: W3110, Metabolic Activation: NONE, Method: SPOT TEST) is “inactive; negative”; the mutagenic call (Test System: E. COLI, Strain/Indicator: W3110, Metabolic Activation: RAT LIVER S-9, AROCLOR 1254, Method: SPOT TEST) is “inactive; negative”; the mutagenic call (Test System: MOUSE LYMPHOMA, Strain/Indicator: L5178Y (TK+/TK-), Metabolic Activation: NONE, Method: SUSPENSION/PLATE) was “inactive; negative”; the mutagenic call (Test System: MOUSE LYMPHOMA, Strain/Indicator: L5178Y (TK+/TK-), Metabolic Activation: RAT, LIVER, S-9, Method: SUSPENSION/PLATE) is “inactive; negative”.

For the compound `Cc1ccc2c(C)c3ccccc3c(C)c2c1`, the mutagenic call under setting [1] is “active; positive”; the mutagenic call (Test System: AMES SALMONELLA TYPHIMURIUM, Strain/Indicator: TA98, Metabolic Activation: RAT, LIVER, S-9, AROCLOR 1254, Method: STANDARD PLATE) was “active; positive”; the mutagenic call under setting [2] was “inactive; negative”; the mutagenic call (Test System: AMES SALMONELLA TYPHIMURIUM, Strain/Indicator: TA100, Metabolic Activation: RAT, LIVER, S-9, AROCLOR 1254, Method: STANDARD PLATE) is “active; positive”.

Take `Cc1cccc2cc3ccc4cccc5ccc(c12)c3c45`: the mutagenic call reads like this: (Test System: AMES SALMONELLA TYPHIMURIUM, Strain/Indicator: TA100, Metabolic Activation: RAT, INTACT HEPATOCYTES, AROCLOR 1254, Method: PREINCUBATION) “inactive; negative”; (Test System: AMES SALMONELLA TYPHIMURIUM, Strain/Indicator: TA100, Metabolic Activation: RAT, NADPH-FORTIFIED HOMOGENIZED HEPATOCYTES, AROCLOR 1254, Method: PREINCUBATION) “active; positive”.

Regarding `O=[N+]([O-])c1ccccc1SS/C(Cl)=C(\Cl)C(F)(F)F`, the mutagenic call is “active; positive” (Test System: AMES SALMONELLA TYPHIMURIUM, Strain/Indicator: TA100(DNP6), Metabolic Activation: NONE, Method: PREINCUBATION) and “active; positive” (Test System: AMES SALMONELLA TYPHIMURIUM, Strain/Indicator: TA100(NR), Metabolic Activation: NONE, Method: PREINCUBATION).
